Experimental data: US9029366B2, “Substituted bicyclic alkoxy pyrazole analogs as allosteric modulators of mGluR5 receptors” (Vanderbilt University, priority 2012, dated 2015)
Read-outs that look alike come from different tables or passages of the source.

Experiments:
[1] = target: human mGluR5 (Homo sapiens, UniProt P41594); test: Cell-based functional Ca2+ mobilization assay (FDSS), potentiation of glutamate EC20 response, HEK293A cells transfected with human mGluR5a (H10H or H12H cell line); details: in presence of glutamate EC20, ** = compound is an antagonist; for Emax: HEK293-A, % of maximal glutamate response
Description: Human embryonic kidney (HEK) cells transfected with rat mGluR5 were plated in clear bottom assay plates for assay in a Functional Drug Screening System (FDSS). In the alternative assay, HEK cells transfected with human mGluR5 were plated for assay in the FDSS. In some cases the HEK cells transfected with human mGluR5 are the H10H cell line. Alternatively, the HEK cells transfected with human mGluR5 are the H12H cell line. […] The cells were loaded with a Ca^2+-sensitive fluorescent dye (e.g., Fluo-4), and the plates were washed and placed in the FDSS instrument. After establishment of a fluorescence baseline for about three seconds, the compounds of the present invention were added to the cells, and the response in cells was measured. Five minutes later, an mGluR5 agonist (e.g., glutamate, 3,5-dihydroxyphenylglycine, or quisqualate) was added to the cells, and the response of the cells was measured.
The above described assay can be operated in two modes. In the first mode, a range of concentrations of the present compounds were added to cells, followed by a single fixed concentration of agonist. If a compound acted as a potentiator, an EC50 value for potentiation and a maximum extent of potentiation by the compound at this concentration of agonist was determined by non-linear curve fitting. In the second mode, several fixed concentrations of the present compounds were added to various wells on a plate, followed by a range of concentrations of agonist for each concentration of present compound; the EC50 values for the agonist at each concentration of compound were determined by non-linear curve fitting. A decrease in the EC50 value of the agonist with increasing concentrations of the present compounds (a leftward shift of the agonist concentration-response curve) is an indication of the degree of mGluR5 potentiation at a given concentration of the present compound. An increase in the EC50 value of the agonist with increasing concentrations of the present compounds (a rightward shift of the agonist concentration-response curve) is an indication of the degree of mGluR5 antagonism at a given concentration of the present compound. The second mode also indicates whether the present compounds also affect the maximum response to mGluR5 to agonists.
Human mGluR5a cDNA in pCMV6-XL6 mammalian expression plasmid was purchased from OriGene Technologies, Inc. (catalogue number SC326357) and subcloned into pcDNA3.1(−). Human embryonic kidney (HEK)293A cells were then transfected with human mGluR5a pcDNA3.1(−) using LipofectAmine2000 (Invitrogen) and monoclones were selected and tested for functional response using a Ca^2+ mobilization assay. Monoclones were named for the species (“H” for human) plus the location on the plate (e.g. “10H”).
HEK cells transfected with the human mGluR5a receptor (H10H or H12H cell line) were plated at 15,000 cells/well in clear-bottomed poly-D-lysine-coated assay plates (BD Falcon) in glutamate-glutamine-free growth medium and incubated overnight at 37° C. and 5% CO2. Cell-lines used were either the H10H or H12H cell-lines expressing the human mGluR5 receptor. The following day, the growth medium was removed and the cells were washed with assay buffer containing 1× Hank's balanced salt solution (Invitrogen, Carlsbad, Calif.), 20 mM HEPES, 2.5 mM probenecid, pH 7.4 and left with 20 μL of this reagent. Following this step, the cells were loaded with calcium indicator dye, fluo-4 AM, to a final concentration of 2 μM and incubated for 40-45 min at 37° C. The dye solution was removed and replaced with assay buffer. Cell plates were held for 10-15 min at room temperature and were then loaded into the Functional Drug Screening System 6000 (FDSS 6000, Hamamatsu, Japan).
After establishment of a fluorescence baseline for about 3 seconds, the compounds of the present invention were added to the cells, and the response in cells was measured.

[2] = H10H cell line expressing recombinant human mGluR5, read-out: pEC50 (converted)
[3] = H10H cell line expressing recombinant human mGluR5

Sequence of human mGluR5 (P41594 21-1180 isoform P41594-2 limits assumed): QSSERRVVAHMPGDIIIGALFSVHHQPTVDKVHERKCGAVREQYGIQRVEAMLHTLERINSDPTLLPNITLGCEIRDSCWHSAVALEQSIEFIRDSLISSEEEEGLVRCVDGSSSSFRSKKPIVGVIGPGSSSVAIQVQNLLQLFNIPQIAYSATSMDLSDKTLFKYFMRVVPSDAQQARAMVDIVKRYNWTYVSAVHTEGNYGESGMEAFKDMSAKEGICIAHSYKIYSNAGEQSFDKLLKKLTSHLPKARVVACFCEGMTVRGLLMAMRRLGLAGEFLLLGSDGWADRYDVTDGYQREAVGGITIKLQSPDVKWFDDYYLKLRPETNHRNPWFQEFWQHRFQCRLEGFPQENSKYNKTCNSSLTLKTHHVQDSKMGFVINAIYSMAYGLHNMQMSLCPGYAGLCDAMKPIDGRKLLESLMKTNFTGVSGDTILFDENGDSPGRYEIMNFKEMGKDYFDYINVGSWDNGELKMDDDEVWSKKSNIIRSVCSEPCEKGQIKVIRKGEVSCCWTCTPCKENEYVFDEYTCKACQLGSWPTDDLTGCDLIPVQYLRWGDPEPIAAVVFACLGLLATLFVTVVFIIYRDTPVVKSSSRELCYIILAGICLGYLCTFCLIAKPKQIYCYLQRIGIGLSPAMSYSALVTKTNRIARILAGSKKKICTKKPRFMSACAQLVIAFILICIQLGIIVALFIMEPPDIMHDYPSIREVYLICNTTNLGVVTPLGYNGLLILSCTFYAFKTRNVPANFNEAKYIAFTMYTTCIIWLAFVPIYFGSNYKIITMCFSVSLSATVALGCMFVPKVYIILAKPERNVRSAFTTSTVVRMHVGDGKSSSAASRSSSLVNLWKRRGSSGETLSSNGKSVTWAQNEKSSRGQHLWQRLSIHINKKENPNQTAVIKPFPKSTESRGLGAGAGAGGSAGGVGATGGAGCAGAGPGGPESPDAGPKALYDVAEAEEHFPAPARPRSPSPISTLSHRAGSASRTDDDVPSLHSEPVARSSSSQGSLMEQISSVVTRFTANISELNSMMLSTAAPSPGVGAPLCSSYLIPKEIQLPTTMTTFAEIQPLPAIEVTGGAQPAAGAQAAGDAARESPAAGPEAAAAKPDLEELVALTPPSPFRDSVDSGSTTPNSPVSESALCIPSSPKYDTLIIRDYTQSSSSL

SMILES | EC50 [1, 2] [nM] | Emax [1, 3] [%] | melting point [°C] | EC50 ([1]; pEC50, H10H cell line expressing recombinant human mGluR5) [nM]
O=C(c1cc(F)cc(F)c1)N1CCn2nc(OCc3ccccc3)cc2C1 [Example B104] | 138 | 44.5 | 165.2 | 
O=C(c1ccc(F)cc1)N1CCn2nc(OCc3ccccc3F)cc2C1 [Example B11] | 234 | 64 | 135.2 | 
O=C(c1ccc(F)cc1)N1CCn2nc(OCc3cccc(F)c3)cc2C1 [Example B10] | 89.1 | 62 | > 300 | 
O=C(c1ccc(F)c(C(F)(F)F)c1)N1CCn2nc(OCc3ccccc3)cc2C1 [Example B109] |  | 58 | 135.3 | 
COc1cccc(COc2cc3n(n2)CCN(C(=O)c2ccc(F)cc2)C3)c1 [Example B16] | 1410 | 49 | 120.8 | 
N#Cc1cccc(COc2cc3n(n2)CCN(C(=O)c2cccc(F)c2)C3)c1 [Example B106] | 166 | 37 | 103.3 | 
O=C(c1ccc(F)cc1F)N1CCn2nc(OCc3ccccc3F)cc2C1 [Example B133] | 166 | 76 | 132.8 | 
Cc1ccc(COc2cc3n(n2)CCN(C(=O)c2ccc(F)cc2)C3)cc1 [Example B12] | > 30200 | 28 | 156.9 | 
O=C(c1cc(F)ccc1F)N1CCn2nc(OCc3ccccc3)cc2C1 [Example B114] | 417 | 72 | 123.7 | 
O=C(c1ccc(F)cc1)N1CCn2nc(OCc3ccccn3)cc2C1 [Example B18] | > 30200 | 22 | 138.1 | 
Cc1ccccc1COc1cc2n(n1)CCN(C(=O)c1ccc(F)cc1)C2 [Example B14] | 2000 | 51 | 99.3 | 
O=C(c1cccc(F)c1F)N1CCn2nc(OCc3ccccc3)cc2C1 [Example B115] | 537 | 40 | 122.7 | 
N#Cc1cccc(COc2cc3n(n2)CCN(C(=O)c2cc(F)cc(F)c2)C3)c1 [Example B119] | > 30200 | 15 | 124 | 
COc1cccc(C(=O)N2CCn3nc(OCc4ccccc4)cc3C2)n1 [Example B82] | > 30200 | 9 | 97.1 | 
N#Cc1cccc(COc2cc3n(n2)CCN(C(=O)c2ccccc2Cl)C3)c1 [Example B131] | > 30200 | 16 | 116.8 | 
O=C(c1ncccc1Cl)N1CCn2nc(OCc3ccccc3)cc2C1 [Example B29] | > 30200 | 27 | 135.1 | 
O=C(c1cccc(Cl)c1)N1CCn2nc(OCc3cccc(F)c3)cc2C1 [Example B98] | 112 | 66 | 117 | 
O=C(c1cc(F)cc(F)c1)N1CCn2nc(OCc3cccc(F)c3)cc2C1 [Example B94] | 61.7 | 25 | 154.7 | 
O=C(c1ccccc1)N1CCn2nc(OCc3ccc(F)cc3)cc2C1 [Example B97] | 331 | 48 | 131 | 
O=C(c1cccnc1)N1CCn2nc(OCc3ccccc3)cc2C1 [Example B64] | > 10000 | 38 |  | 

SMILES | EC50 [1, 2] [nM] | Emax [1, 3] [%] | melting point [°C] | EC50 ([1]; pEC50, H10H cell line expressing recombinant human mGluR5) [nM]
CCC(C)C(=O)N1CCn2nc(OCc3ccccc3)cc2C1 (centres unmarked) [Example B75] | > 30200 | 27 |  | 
O=C(c1n[nH]c2ccccc12)N1CCn2nc(OCc3ccccc3)cc2C1 [Example B53] | 117 | 69 |  | 
O=C(c1ccsc1)N1CCn2nc(OCc3ccccc3)cc2C1 [Example B60] | 275 | 61 |  | 
O=C(CC(F)(F)F)N1CCn2nc(OCc3ccccc3)cc2C1 [Example B69] | > 30200 | 16 |  | 
CCOc1ccccc1C(=O)N1CCn2nc(OCc3ccccc3)cc2C1 [Example B48] | > 30200 | 13 |  | 
O=C(c1ccc(F)cc1)N1CCn2nc(OCc3ccnc(F)c3)cc2C1 [Example B116] | ≥ 10000 | 51 |  | 
O=C(c1ccco1)N1CCn2nc(OCc3ccccc3)cc2C1 [Example B55] |  | 55 |  | 324
CC(C)OCC(=O)N1CCn2nc(OCc3ccccc3)cc2C1 [Example B23] | 3240 | 34 |  | 
CC(C)(C)NCC(=O)N1CCn2nc(OCc3ccccc3)cc2C1 [Example B25] | > 30200 | 20 |  | 
CC(=O)N1CCn2nc(OCc3ccccc3)cc2C1 [Example B108] | > 30200 | 28 |  | 
CO[C@](C(=O)N1CCn2nc(OCc3ccccc3)cc2C1)(c1ccccc1)C(F)(F)F [Example B87] | > 30200 | 15 |  | 
O=C(CC1CCCC1)N1CCn2nc(OCc3ccccc3)cc2C1 [Example B67] | 479 | 52 |  | 
Cn1c(Cl)ccc1C(=O)N1CCCn2nc(OCc3ccccc3)cc2C1 [Example B90] | 47.9 | 74 |  | 
Cn1ccc(COc2cc3n(n2)CCN(C(=O)c2ccc(F)cc2)C3)cc1=O [Example B128] | > 30200 | 28 |  | 
O=C(c1cc[nH]n1)N1CCn2nc(OCc3ccccc3)cc2C1 [Example B52] | 2000 | 71 |  | 
CN(C)c1cccc(C(=O)N2CCn3nc(OCc4ccccc4)cc3C2)n1 [Example B88] | 617 | 40 |  | 
Cn1c(Cl)ccc1C(=O)N1CCn2nc(OCc3cccc(F)c3)cc2C1 [Example B80, (5-chloro-1-methyl-1H-pyrrol-2-yl)-[2-(3-fluoro-benzyloxy)-6,7-dihydro-4H-pyrazolo[1,5-a]pyrazin-5-yl]-methanone] | 22.9 | 65 |  | 
N#Cc1ccc(C(=O)N2CCn3nc(OCc4ccccc4)cc3C2)c(F)c1 [Example B46] | > 30200 | 20 |  | 
O=C(c1cnccn1)N1CCn2nc(OCc3ccccc3)cc2C1 [Example B37] | > 10000 | 44 |  | 
CS(=O)(=O)c1cccc(COc2cc3n(n2)CCN(C(=O)c2ccc(F)cc2)C3)c1 [Example B122] | > 30200 | 28 |  | 
